# Test results reported in patent US12630785B2, “Liquid fabric care compositions comprising capsules” (The Procter & Gamble Company, priority 2020, dated 2026).
# Experiments:
# [1] = Capsule perfume leakage in heavy-duty liquid (HDL) detergent, headspace SPME GC/MS; assay type: physicochemical
# Experimental: The testing of capsule leakage in liquid compositions (e.g., liquid fabric enhancer/“LFE” compositions and/or heavy-duty liquid/“HDL” detergents) is performed as follows. […] The 1 gram aliquot in the 7 ml vial is then mixed on a stirring plate for 24 h at 500 rpm, thereby ensuring that the capsules are broken by the grinding action of the stir bar against the bottom of the 7 ml vial. Optical microscopy can be used to verify that no more intact capsules remain. In case such capsules are found, the step is to repeated for an additional 24 h, or until all or almost all capsules are broken. Then, the formulation containing broken capsules is introduced into GC vials in a similar manner as for step (a). This yields total oil samples. It is to be noted that the capsule sample and the total oil sample are not analyzed on the same day, as there is a need to prepare the total oil sample after the capsule sample has been removed from storage. […] The perfume oil composition formulated herein is representative of the perfume oil composition that is present in the slurry. Then the free oil formulation is introduced into GC vials in a similar manner as for step (a). This yields reference samples, which must be used when analyzing both the capsule sample and the total oil sample. […] Two headspace vials are prepared for each sample. The sealed headspace vials are then allowed to equilibrate. […] After equilibrating, the samples are analyzed by GC/MS. […] The perfume composition is analyzed by fast GC/MS in full scan mode. Ion extraction of the specific mass for each component is obtained. The leakage is calculated as follows, separately for the capsule sample and total oil sample, where “Area” denotes the area under the chromatogram peak corresponding to the PRM of interest: Once calculated for all PRMs for both the total oil sample and the capsule sample, the corrected PRM leakage can be calculated using the following formula: Once the corrected PRM leakage has been calculated for all PRMs, the Average leakage can be found by taking the arithmetic mean of each corrected PRM leakage. […] The resulting products are stored for one week at 35° C. At the end of the storage period, samples of each product composition are analyzed for perfume leakage out of the capsule using headspace analysis. The data is reported as a percentage, determined by comparing the amount of the individual perfume raw materials found in the headspace to the amount originally provided to the capsules.
# [2] = Capsule perfume leakage in liquid fabric enhancer (LFE), headspace SPME GC/MS; assay type: physicochemical
# Experimental: The testing of capsule leakage in liquid compositions (e.g., liquid fabric enhancer/“LFE” compositions and/or heavy-duty liquid/“HDL” detergents) is performed as follows. […] The 1 gram aliquot in the 7 ml vial is then mixed on a stirring plate for 24 h at 500 rpm, thereby ensuring that the capsules are broken by the grinding action of the stir bar against the bottom of the 7 ml vial. Optical microscopy can be used to verify that no more intact capsules remain. In case such capsules are found, the step is to repeated for an additional 24 h, or until all or almost all capsules are broken. Then, the formulation containing broken capsules is introduced into GC vials in a similar manner as for step (a). This yields total oil samples. It is to be noted that the capsule sample and the total oil sample are not analyzed on the same day, as there is a need to prepare the total oil sample after the capsule sample has been removed from storage. […] The perfume oil composition formulated herein is representative of the perfume oil composition that is present in the slurry. Then the free oil formulation is introduced into GC vials in a similar manner as for step (a). This yields reference samples, which must be used when analyzing both the capsule sample and the total oil sample. […] Two headspace vials are prepared for each sample. The sealed headspace vials are then allowed to equilibrate. Samples reach equilibrium after 3 hours at room temperature, but can be left to sit longer without detriment or change to the results, up until 24 hours after sealing the headspace vial. After equilibrating, the samples are analyzed by GC/MS. […] The perfume composition is analyzed by fast GC/MS in full scan mode. Ion extraction of the specific mass for each component is obtained. The leakage is calculated as follows, separately for the capsule sample and total oil sample, where “Area” denotes the area under the chromatogram peak corresponding to the PRM of interest: Once calculated for all PRMs for both the total oil sample and the capsule sample, the corrected PRM leakage can be calculated using the following formula: Once the corrected PRM leakage has been calculated for all PRMs, the Average leakage can be found by taking the arithmetic mean of each corrected PRM leakage. […] The resulting products are stored for one week at 35° C. At the end of the storage period, samples of each product composition are analyzed for perfume leakage out of the capsule using headspace analysis. The data is reported as a percentage, determined by comparing the amount of the individual perfume raw materials found in the headspace to the amount originally provided to the capsules.
# [3] = PRM of Perfume 1 out of Comparative Example 5-1 capsules (polyacrylate shell)
# [4] = PRM of Perfume 1 out of Comparative example 5-2 capsules (per EP2500087B1)
# [5] = PRM of Perfume 1 out of Comparative example 5-3 capsules (per WO2010013250A2)
# [6] = PRM of Perfume 1 out of Example 5-1 capsules (silica shell)
# [7] = PRM of Perfume 1 out of Comparative Example 4-1 capsules (polyacrylate shell), LFE Composition 1, 0.25 wt % perfume
# [8] = PRM of Perfume 1 out of Comparative Example 6-1 capsules (no second shell component), LFE Composition 1
# [9] = PRM of Perfume 1 out of Comparative Example 10-1 capsules (per EP2500087B1), LFE Composition 1
# [10] = PRM of Perfume 1 out of Comparative Example 10-2 capsules (per WO2010013250A2, with IPM), LFE Composition 1
# [11] = PRM of Perfume 1 out of Example 2, Sample A capsules, LFE Composition 1 (Ester Quat 1)
# [12] = PRM of Perfume 1 out of Example 2, Sample A capsules, LFE Composition 2 (Ester Quat 2)
# [13] = PRM of Perfume 1 out of Example 2, Sample A capsules, LFE Composition 3 (Ester Quat 3)
# [14] = PRM of Perfume 1 out of Example 4-1 capsules (silica shell), LFE Composition 1, 0.25 wt % perfume
# [15] = PRM of Perfume 1 out of Example 6-1 capsules (w/ second shell component), LFE Composition 1
# [16] = PRM of Perfume 1 out of Example 10-1 capsules (Sample F, Perfume 1/IPM 40/60), LFE Composition 1
# [17] = PRM of Perfume 1 out of Example 10-2 capsules (Sample A), LFE Composition 1
# [18] = PRM of Perfume 3 out of Capsule Sample D, LFE Composition 1
# [19] = PRM of Perfume 2 out of Capsule Sample C, LFE Composition 1
# [20] = PRM of Perfume 4 out of Comparative Example 9-1 capsules (per EP3078415A), LFE Composition 1
# [21] = PRM of Perfume 4 out of Comparative Example 9-2 capsules (per EP3078415A, additional TEOS), LFE Composition 1
# [22] = PRM of Perfume 4 out of Example 9-1 capsules (Sample E), LFE Composition 1
structure (smiles),measurement,setting,value
CC(=O)O[C@@H]1C[C@H]2CC[C@]1(C)C2(C)C (racemic) [iso-Bornyl acetate],Leakage (as %) after 1 week at 35° C.,[1]; [3],1%
same,Leakage (as %) after 1 week at 35° C.,[1]; [4],105%
same,Leakage (as %) after 1 week at 35° C.,[1]; [5],102%
same,Leakage (as %) after 1 week at 35° C.,[1]; [6],31%
same,Leakage (as %) after 1 week at 35° C.,[2]; [7],4%
same,Leakage (as %) after 1 week at 35° C.,[2]; [8],5%
same,Leakage (as %) after 1 week at 35° C.,[2]; [9],89%
same,Leakage (as %) after 1 week at 35° C.,[2]; [10],92%
same,Leakage (as %) after 1 week at 35° C.,[2]; [11],1.6%
same,Leakage (as %) after 1 week at 35° C.,[2]; [12],0.8%
same,Leakage (as %) after 1 week at 35° C.,[2]; [13],1.0%
same,Leakage (as %) after 1 week at 35° C.,[2]; [14],8%
same,Leakage (as %) after 1 week at 35° C.,[2]; [15],9%
same,Leakage (as %) after 1 week at 35° C.,[2]; [16],19%
same,Leakage (as %) after 1 week at 35° C.,[2]; [17],9%
same,Leakage (as %) after 1 week at 35° C.,[2]; [18],8%
"CC=CC(=O)C1C(C)C=CCC1(C)C (centres unmarked) [1-(2,6,6-trimethyl-1-cyclohex-3-enyl)but-2-en-1-one]",Leakage (as %) after 1 week at 35° C.,[2]; [19],4%
same,Leakage (as %) after 1 week at 35° C.,[2]; [18],5%
"C=CCCC(=O)C1=CCCC(C)(C)C1 [1-(5,5-dimethyl-1-cyclohexenyl)pent-4-en-1-one]",Leakage (as %) after 1 week at 35° C.,[2]; [19],2%
same,Leakage (as %) after 1 week at 35° C.,[2]; [18],2%
"CC1=CC(C)C(C=O)CC1 (centres unmarked) [2,4-dimethylcyclohex-3-ene-1-carbaldehyde]",Leakage (as %) after 1 week at 35° C.,[1]; [3],12%
same,Leakage (as %) after 1 week at 35° C.,[1]; [4],104%
same,Leakage (as %) after 1 week at 35° C.,[1]; [5],101%
same,Leakage (as %) after 1 week at 35° C.,[1]; [6],31%
same,Leakage (as %) after 1 week at 35° C.,[2]; [7],31%
same,Leakage (as %) after 1 week at 35° C.,[2]; [8],94%
same,Leakage (as %) after 1 week at 35° C.,[2]; [9],94%
same,Leakage (as %) after 1 week at 35° C.,[2]; [10],96%
same,Leakage (as %) after 1 week at 35° C.,[2]; [11],2.1%
same,Leakage (as %) after 1 week at 35° C.,[2]; [12],1.1%
same,Leakage (as %) after 1 week at 35° C.,[2]; [13],1.6%
same,Leakage (as %) after 1 week at 35° C.,[2]; [14],7%
same,Leakage (as %) after 1 week at 35° C.,[2]; [15],8%
same,Leakage (as %) after 1 week at 35° C.,[2]; [16],22%
same,Leakage (as %) after 1 week at 35° C.,[2]; [17],8%
same,Leakage (as %) after 1 week at 35° C.,[2]; [19],12%
"CC(=O)C(C)=CC1C(C)=CCCC1(C)C (centres unmarked) [3-Methyl-4-(2,6,6-trimethyl-2cyclohexen-1-yl)-3-buten-2-one]",Leakage (as %) after 1 week at 35° C.,[2]; [18],6%
"CCC(=O)OC1C=CC2C3CCC(C3)C12 (centres unmarked) [3a,4,5,6,7,7a-hexahydro-1H-4,7-methanoinden-1-yl propanoate]",Leakage (as %) after 1 week at 35° C.,[2]; [19],4%
C=CCOC(=O)CCCCC [Allyl caproate],Leakage (as %) after 1 week at 35° C.,[2]; [18],9%
CC(=O)/C=C/C1C(C)=CCCC1(C)C (stereo not drawn) [Alpha-ionone],Leakage (as %) after 1 week at 35° C.,[2]; [20],58%
same,Leakage (as %) after 1 week at 35° C.,[2]; [21],69%
same,Leakage (as %) after 1 week at 35° C.,[2]; [22],15%
CC(C)=CCCC(C)CCO (centres unmarked) [Citronellol],Leakage (as %) after 1 week at 35° C.,[2]; [18],4%
c1ccc(Oc2ccccc2)cc1 [Diphenyl oxide],Leakage (as %) after 1 week at 35° C.,[2]; [19],4%
CCCCCCOC(=O)c1ccccc1O [Hexyl Salicylate],Leakage (as %) after 1 week at 35° C.,[2]; [20],34%
same,Leakage (as %) after 1 week at 35° C.,[2]; [21],28%
same,Leakage (as %) after 1 week at 35° C.,[2]; [22],3%
CCCCCC/C(C=O)=C\c1ccccc1 [Hexylcinnamyl aldehyde],Leakage (as %) after 1 week at 35° C.,[2]; [20],22%
same,Leakage (as %) after 1 week at 35° C.,[2]; [21],36%
same,Leakage (as %) after 1 week at 35° C.,[2]; [22],7%
CC1=CC(C)C(C=O)CC1 (centres unmarked) [Ligustral-1],Leakage (as %) after 1 week at 35° C.,[2]; [18],8%
CC(C=O)Cc1ccc(C(C)(C)C)cc1 (centres unmarked) [Lilial],Leakage (as %) after 1 week at 35° C.,[2]; [20],46%
same,Leakage (as %) after 1 week at 35° C.,[2]; [21],61%
same,Leakage (as %) after 1 week at 35° C.,[2]; [22],30%
CCCCCCCCCC(C)C=O (centres unmarked) [Methyl nonyl acetaldehyde],Leakage (as %) after 1 week at 35° C.,[2]; [18],4%
CC(=O)OC(C)c1ccccc1 (centres unmarked) [Methyl phenyl carbinyl acetate],Leakage (as %) after 1 week at 35° C.,[2]; [18],7%
CC(C)=CC1CC(C)CCO1 (centres unmarked) [Rose Oxide],Leakage (as %) after 1 week at 35° C.,[2]; [18],8%
CCC=C(C)C(O)CCCCC (centres unmarked) [Undecavertol],Leakage (as %) after 1 week at 35° C.,[2]; [18],11%
COC(=O)OC1CC/C=C\CCC1 (centres unmarked) [[(4Z)-1-cyclooct-4-enyl] methyl carbonate],Leakage (as %) after 1 week at 35° C.,[2]; [19],5%
CC1=CCC(C(C)(C)O)CC1 (stereo not drawn) [alpha-Terpineol],Leakage (as %) after 1 week at 35° C.,[2]; [18],10%
CC(=O)/C=C/C1=C(C)CCCC1(C)C [beta ionone],Leakage (as %) after 1 week at 35° C.,[2]; [18],5%
"CCOC(=O)C1CCC(C(=O)OCC)CC1 (centres unmarked) [diethyl 1,4-cyclohexane dicarboxylate]",Leakage (as %) after 1 week at 35° C.,[2]; [19],3%
